Reference: patent publication US20010006961A1, “METHOD FOR IMPROVING FRUIT YIELDS FROM BANANA PLANTS” (priority 1995, published 2001)

Assays:
banana plants [1] = assay: In vivo test on a banana plantation on a soil of different nature, treatment carried out with an aeroplane (Example 2); conditions: applied by aeroplane, control 37.4 kg
Description: Example 2: In vivo test of a composition comprising fosetyl-Al on a banana plantation:
Example 1 is repeated, a plantation situated on a soil of different nature being treated and the treatment being carried out with an aeroplane. The fosetyl-Al doses applied are shown in the table below, along with the average banana bunch weights obtained.

banana plants [2] = assay: In vivo test on a banana plantation, fosetyl-Al wettable powder applied with a knapsack sprayer (Example 1)
Description: Example 1: In viva test of a composition comprising fosetyl-Al on a banana plantation:
The test is carried out on a plantation of banana plants which have reached a stage of regular fruit production. This plantation is furthermore treated periodically throughout the duration of the test by means of a conventional protective treatment against various fungal diseases, as well as against harmful insects and nematodes, which treatment is known to have no effect of the type of those observed below with fosetyl-Al.
The duration of the test is 2 years.
At the beginning of the first year, treatment with fosetyl-Al is carried out. For this, use is made of a wettable powder formulation of fosetyl-Al diluted in water before use, which is applied by means of a knapsack sprayer. The application dose is 6.4 kg of fosetyl-Al per hectare. This application of fosetyl-Al is repeated every 3 months throughout the duration of the test.
The average weight of a bunch of bananas harvested per plant is measured. The mean value of this weight, during the 2nd year of the test, is equal to 39.8 kg.
In comparison, a control test was carried out, in which there was no application of fosetyl-Al, the protocol otherwise being identical. This test gave 38.4 kg as the average value of the weight of a bunch of bananas harvested per plant, measured under the same conditions as above.

banana plants [3] = assay: In vivo test of application by injection into the growing pseudostem (Example 3); conditions: 6 kg/ha (3 g per plant) injected into pseudostem 1 month before flowering; harvest 4 months later; control 28.3 kg
Description: Example 3: In vivo test of the application of a composition comprising fosetyl-Al by injection into the growing pseudostem:
The test is carried out on a plantation of banana plants which have reached a stage of regular fruit production. This plantation is furthermore treated periodically throughout the duration of the test by means of a conventional preventive treatment against various fungal diseases, as well as against harmful insects and nematodes, which treatment is known to have no effect of the type of those observed below with fosetyl-Al.
Fosetyl-Al is injected into the pseudostem of the growing banana plants, in the proportion of 6 kg/ha (i.e. 3 g of fosetyl-Al per plant), 1 month before flowering.
The fruits are harvested 4 months later. The average weight of the bunch of bananas is 31.4 kg. The average weight of a bunch of bananas corresponding to the control test (untreated banana plants) is 28.3 kg.

SMILES: CCO[PH](=O)[O-].CCO[PH](=O)[O-].CCO[PH](=O)[O-].[Al+3] [fosetyl-Al, aluminium tris(O-ethyl phosphonate)]
- Average weight of a bunch (banana plants [1]; fosetyl-Al dose 3.2 kg/ha): 38.9 kg
- Average weight of a bunch (banana plants [1]; fosetyl-Al dose 6.4 kg/ha): 39.7 kg
- average weight of a bunch of bananas harvested per plant (banana plants [2]; 6.4 kg fosetyl-Al per hectare, sprayed every 3 months, mean value during 2nd year of the test, control 38.4 kg): 39.8 kg
- difference in average bunch weight versus control, relative value (banana plants [2]; 6.4 kg/ha every 3 months, 39.8 kg vs control 38.4 kg): 5%
- additional amount of fruit (banana plants [2]; in the case where the yield of the banana plantation is 40 tonnes/hectare of bananas): ~2 tonnes
- average weight of the bunch of bananas (banana plants [3]): 31.4 kg
